pIC50, pKd: −log10 of the molar value.
Key:
[1] = biological target: human C5 complement protein (Homo sapiens, UniProt P01031); experiment: Surface plasmon resonance (SPR), immobilized human C5, 37° C. (Example 12, Table 21); format: binding; conditions: where a range of compound concentrations were analyzed, the lowest value obtained
Source text: (§1) Compound CU0136 is a racemic mixture of Compound CU0186 and CU0187. Numbers in parenthesis following compound numbers indicate alternate enantiomers (as distinguished by retention time during chromatographical separation).

Human C5 = biological target: T1, Human C5 (Homo sapiens, UniProt P01031); experiment: Red blood cell (RBC) hemolysis assay, luminescent (Example 13, Table 22); format: cell-based; conditions: sheep EA cells, […] C5-depleted human serum, 0.5 nM human C5, 1 hour 37° C., luminescence; also: 1.5% C5-depleted human serum
T1 construct: purchased Complement Technology
T1 sequence (P01031 19-1676): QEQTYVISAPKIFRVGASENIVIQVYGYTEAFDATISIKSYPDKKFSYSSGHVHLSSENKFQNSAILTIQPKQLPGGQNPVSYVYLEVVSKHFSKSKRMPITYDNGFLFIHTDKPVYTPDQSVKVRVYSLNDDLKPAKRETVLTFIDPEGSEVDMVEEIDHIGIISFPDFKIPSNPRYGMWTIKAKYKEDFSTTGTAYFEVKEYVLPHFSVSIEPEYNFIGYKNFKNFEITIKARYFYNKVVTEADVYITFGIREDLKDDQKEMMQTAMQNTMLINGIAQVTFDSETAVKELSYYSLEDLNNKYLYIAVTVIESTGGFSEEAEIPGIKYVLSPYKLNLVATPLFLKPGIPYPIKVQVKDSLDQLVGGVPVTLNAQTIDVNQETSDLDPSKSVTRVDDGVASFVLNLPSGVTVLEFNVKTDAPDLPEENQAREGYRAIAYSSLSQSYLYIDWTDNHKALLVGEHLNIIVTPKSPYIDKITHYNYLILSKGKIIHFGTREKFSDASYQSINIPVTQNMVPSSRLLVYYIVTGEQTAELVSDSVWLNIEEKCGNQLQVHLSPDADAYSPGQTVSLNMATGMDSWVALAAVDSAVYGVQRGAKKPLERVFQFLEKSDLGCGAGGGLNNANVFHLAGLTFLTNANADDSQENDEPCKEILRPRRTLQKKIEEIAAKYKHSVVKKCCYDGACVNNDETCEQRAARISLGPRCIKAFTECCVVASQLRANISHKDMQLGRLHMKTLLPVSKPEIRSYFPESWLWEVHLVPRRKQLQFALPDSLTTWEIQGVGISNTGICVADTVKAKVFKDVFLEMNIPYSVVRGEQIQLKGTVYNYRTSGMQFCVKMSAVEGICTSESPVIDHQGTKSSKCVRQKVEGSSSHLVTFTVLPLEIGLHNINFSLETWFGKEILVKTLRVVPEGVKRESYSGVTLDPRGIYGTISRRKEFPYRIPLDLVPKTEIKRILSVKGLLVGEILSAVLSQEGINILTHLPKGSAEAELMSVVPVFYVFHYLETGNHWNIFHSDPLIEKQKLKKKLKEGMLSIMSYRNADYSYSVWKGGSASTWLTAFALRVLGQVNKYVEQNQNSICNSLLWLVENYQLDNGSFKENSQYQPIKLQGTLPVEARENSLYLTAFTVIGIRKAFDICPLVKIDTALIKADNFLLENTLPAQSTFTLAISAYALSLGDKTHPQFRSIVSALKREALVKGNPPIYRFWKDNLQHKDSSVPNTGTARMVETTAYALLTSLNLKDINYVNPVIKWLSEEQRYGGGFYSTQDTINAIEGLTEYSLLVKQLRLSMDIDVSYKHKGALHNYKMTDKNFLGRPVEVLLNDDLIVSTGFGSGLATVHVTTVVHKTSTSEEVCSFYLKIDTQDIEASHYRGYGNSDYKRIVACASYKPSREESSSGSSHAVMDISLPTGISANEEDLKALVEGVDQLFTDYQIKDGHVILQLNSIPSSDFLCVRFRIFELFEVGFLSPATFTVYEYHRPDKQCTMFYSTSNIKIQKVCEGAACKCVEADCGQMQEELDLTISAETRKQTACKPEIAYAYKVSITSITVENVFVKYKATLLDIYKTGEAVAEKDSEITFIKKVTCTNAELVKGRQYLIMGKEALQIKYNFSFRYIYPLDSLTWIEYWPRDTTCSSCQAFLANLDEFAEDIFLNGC
Source text: as §1

Sequence of human C5 complement protein (P01031 19-1676): as above

SMILES | pKd [1] | pIC50 (Human C5)
CCCCCOc1cc(N2CCCN(Cc3cccc4c3ccn4CC3(O)CCN(C)CC3)C2=O)ccc1OC [CU0022] | 8.54 | 7.77
CCCCCOc1cc(N2CCCN(Cc3ccnc4c3ccn4CC(=O)N3CCOCC3)C2=O)ccc1OC [CU0043] | 7.78 | 7.53
CCCCCOc1cc(N2CCCN(Cc3ccnc4c3ccn4CC(=O)N3CCN(CCOC)CC3)C2=O)ccc1OC [CU0057] | 7.74 | 7.65
CCCCCOc1cc(N2CCN(Cc3ccccc3OC)C2=O)ccc1OC [CU0001] | 7.53 | 7.45
CCCCCOc1cc(N2CCCN(Cc3ccnc4c3ccn4CC(=O)N3CCOCC3)C2=O)ccc1C1CC1 [CU0044] | 7.45 | 7.06
CCCCCOc1cc(N2CCCN(Cc3ccnc4c3ccn4CC(=O)N3CCN(C4CC4)CC3)C2=O)ccc1OC [CU0056] | 7.64 | 7.31
CCCCCOc1cc(N2CCCN(Cc3ccnc4c3ccn4CC(=O)N3CCOC(CN4CCCC4)C3)C2=O)ccc1OC (centres unmarked) [CU0051] | 8.10 | 7.34
CCCCCOc1cc(N2CCCN(Cc3ccnc4c3ccn4CC(=O)N3CCN(C)C(=O)C3)C2=O)ccc1C1CC1 [CU0061] | 7.89 | 7.28
CCCCCOc1cc(N2CCCN(Cc3ccc(CC(=O)N4CCCOCC4)cc3OC)C2=O)ccc1OC [CU0100] | 8.68 | 7.68
CCCCCOc1cc(N2CCCN([C@@H](C)c3ccnc4c3ccn4CC(=O)N3CCCOCC3)C2=O)ccc1OC [CU0055] | 7.98 | 7.51
CCCCCOc1cc(N2CCN(Cc3ccnc4c3ccn4CC(=O)N(C)C)C2=O)ccc1OC [CU0033] | 7.21 | 6.87
CCCCCOc1cc(N2CCCN(Cc3cccc4c3ccn4CC(=O)N3CCCC3)C2=O)ccc1OC [CU0235] | 8.42 | 7.53
CCCCCOc1cc(N2CCN(Cc3cccc(F)c3Cl)C2=O)ccc1OC [CU0011] | 6.09 | 6.05
CCCCCOc1cc(N2CCCN(Cc3ccnc4c3ccn4CC(=O)N(C)C)C2=O)ccc1C1CC1 [CU0036] | 7.60 | 6.92
CCCCCOc1cc(N2CCCN(Cc3cccc4c3ccn4C3CCN(C)C3=O)C2=O)ccc1OC (centres unmarked) [CU0020] | 8.52 | 7.76
CCCCCOc1cc(N2CCCN(Cc3cccc(F)c3Cl)C2=O)ccc1OC [CU0012] | 6.49 | 6.89
CCCCCOc1cc(N2CCCN(Cc3ccnc4c3ccn4CC(=O)N3CC(=O)N(C)C(C)C3)C2=O)ccc1OC (centres unmarked) [CU0062] | 7.76 | 7.48

SMILES | pKd [1] | pIC50 (Human C5)
CCCCCOc1cc(N2CCCN(Cc3ccnc4c3ccn4CC(=O)N3CCOC(CN(C)C)C3)C2=O)ccc1OC (centres unmarked) [CU0050] | 8.05 | 7.74
CCCCCOc1cc(N2CCN(Cc3ccc(C(C)(C)O)cc3OC)C2=O)ccc1OC [CU0004] | 7.98 | 7.92
CCCCCOc1cc(N2CCCN(Cc3ccc(CC(=O)N4CCOCC4)cc3Cl)C2=O)ccc1OC [CU0116] | 7.99 | 7.63
CCCCCOc1cc(N2CCCN(Cc3ccc(CCN(CC)CC)cc3OC)C2=O)ccc1OC [CU0122] | 8.02 | 7.77
CCCCCOc1cc(N2CCCN(Cc3cccc4c3ccn4CC(=O)N3CCNC(=O)C3)C2=O)ccc1OC [CU0028] | 8.30 | 8.05
CCCCCOc1cc(N2CCCN(Cc3cccc4c3ccn4Cc3nncn3C)C2=O)ccc1OC [CU0024] | 8.30 | 7.89
CCCCCOc1cc(N2CCCN(Cc3ccccc3Cl)C2=O)ccc1OC [CU0010] | 7.13 | 7.46
CCCCCOc1cc(N2CCCN(Cc3cccc4c3ccn4CC(=O)N(C)C)C2=O)ccc1OC [CU0025] | 8.30 | 7.87
CCCCCOc1cc(N2CCN(Cc3cccc4c3OCO4)C2=O)ccc1OC [CU0064] | 6.40 | 6.10
COc1ccc(N2CCCN(Cc3cccc4c3ccn4CC(=O)N(C)C)C2=O)cc1OCCCC(C)(F)F [CU0027] | 7.85 | 7.65
CCCCCOc1cc(N2CCCN(Cc3ccc(CCN4CCOCC4)cc3OC)C2=O)ccc1OC [CU0124] | 8.19 | 7.59
CCCC(F)(F)COc1cc(N2CCCN(Cc3ccc(CC(=O)N(C)C)cc3OC)C2=O)ccc1OC [CU0111] | 8.47 | 7.60
CCCCCOc1cc(N2CCCN(Cc3ccc(CC(=O)N4CCNC(=O)C4)cc3OC)C2=O)ccc1OC [CU0101] | 8.62 | 
CCCCCOc1cc(N2CCCN(Cc3ccc(CC(=O)N(C)C)cc3Cl)C2=O)ccc1OC [CU0115] | 8.11 | 7.55
CCCCCOc1cc(N2CCCN(Cc3ccc(CC(=O)N4CCCC4)cc3Cl)C2=O)ccc1OC [CU0118] | 7.89 | 7.45
CCCCCOc1cc(N2CCCN(Cc3ccnc4c3ccn4CC(=O)N3CCOC(COC)C3)C2=O)ccc1OC (centres unmarked) [CU0048] | 7.73 | 7.24
